Experimental data from article PMC8788362, “Rational design and synthesis of 2-(1H-indazol-6-yl)-1H-benzo[d]imidazole derivatives as inhibitors targeting FMS-like tyrosine kinase 3 (FLT3) and its mutants” (Journal of Enzyme Inhibition and Medicinal Chemistry, 2022).
Substitutions are numbered along the chain they refer to. Where “and” joins values, the source holds several entries; their conditions need not be identical. Equal entries are not always repeated. Where two headings read alike, the source gives them in different places. Values belong to the compound of their own block, whether it stands above or below them.

Legend:
FLT3 (F594_R595 ins R) = molecular target: T1, FLT3 (F594_R595 ins R) (Homo sapiens, UniProt P36888, INS594R); test: Reaction Biology Kinase HotSpot radiometric kinase assay; assay type: biochemical
T1 construct: purchased Reaction Biology Corp. (Kinase HotSpot service)
From the text: (§1) (specific activity approx. 500 cpm/pmol, concentration as required).

FLT3 (ITD)-NPOS = FLT3 (ITD)-NPOS (Homo sapiens, UniProt P36888, ITD); test: as above; assay type: biochemical
From the text: as §1

FLT3 (ITD)-W51 = molecular target: T2, FLT3 (ITD)-W51 (Homo sapiens, UniProt P36888, DUP595-601); test: as above; assay type: biochemical
T2 construct: purchased Reaction Biology Corp. (Kinase HotSpot service)
From the text: as §1

FLT3 (R595_E596 ins EY) = molecular target: T3, FLT3 (R595_E596 ins EY) (Homo sapiens, UniProt P36888, INS595EY); test: as above; assay type: biochemical
T3 construct: purchased Reaction Biology Corp. (Kinase HotSpot service)
From the text: as §1

[1] = molecular target: T4, FLT3 (Y591_V592 ins VDFREYEYD) (Homo sapiens, UniProt P36888, INS591VDFREYEYD); test: as above; assay type: biochemical
T4 construct: purchased Reaction Biology Corp. (Kinase HotSpot service)
From the text: as §1

ABL1 = molecular target: T5, ABL1 (Homo sapiens, UniProt P00519); test: Reaction Biology Kinase HotSpot kinase assay; assay type: biochemical
T5 construct: purchased Reaction Biology Corp. (Kinase HotSpot service)
From the text: as §1

CAMKK1 = molecular target: T6, CAMKK1 (Homo sapiens, UniProt Q8N5S9); test: Reaction Biology Kinase HotSpot kinase assay; assay type: biochemical
T6 construct: purchased Reaction Biology Corp. (Kinase HotSpot service)
From the text: as §1

TRKC = molecular target: T7, TRKC (Homo sapiens, UniProt Q16288); test: Reaction Biology Kinase HotSpot kinase assay; assay type: biochemical
T7 construct: purchased Reaction Biology Corp. (Kinase HotSpot service)
From the text: as §1

c-Kit = molecular target: T8, c-Kit (Homo sapiens, UniProt P10721); test: Reaction Biology Kinase HotSpot kinase assay; assay type: biochemical
T8 construct: purchased Reaction Biology Corp. (Kinase HotSpot service)
From the text: as §1

AKT1 = molecular target: T9, AKT1 (Homo sapiens, UniProt P31749); test: Kinase HotSpot kinase profiling; assay type: biochemical; conditions: read-out: % Inhibition AKT1
T9 construct: purchased Reaction Biology Corp. (Kinase HotSpot service)
From the text: as §1

ALK = molecular target: T10, ALK (Homo sapiens, UniProt Q9UM73); test: Kinase HotSpot kinase profiling; assay type: biochemical; conditions: read-out: % Inhibition ALK
T10 construct: purchased Reaction Biology Corp. (Kinase HotSpot service)
From the text: as §1

AXL = molecular target: T11, AXL (Homo sapiens, UniProt P30530); test: Kinase HotSpot kinase profiling; assay type: biochemical; conditions: read-out: % Inhibition AXL
T11 construct: purchased Reaction Biology Corp. (Kinase HotSpot service)
From the text: as §1

AXL (R499C) = molecular target: T12, AXL (R499C) (Homo sapiens, UniProt P30530, R499C); test: Kinase HotSpot kinase profiling; assay type: biochemical; conditions: read-out: % Inhibition AXL (R499C)
T12 construct: purchased Reaction Biology Corp. (Kinase HotSpot service)
From the text: as §1

Aurora A = molecular target: T13, Aurora A (Homo sapiens, UniProt O14965); test: Kinase HotSpot kinase profiling; assay type: biochemical; conditions: read-out: % Inhibition Aurora A
T13 construct: purchased Reaction Biology Corp. (Kinase HotSpot service)
From the text: as §1

BRAF (V599E) = molecular target: T14, BRAF (V599E) (Homo sapiens, UniProt P15056, V600E); test: Kinase HotSpot kinase profiling; assay type: biochemical
T14 construct: purchased Reaction Biology Corp. (Kinase HotSpot service)
From the text: as §1

BTK = molecular target: T15, BTK (Homo sapiens, UniProt Q06187); test: Kinase HotSpot kinase profiling; assay type: biochemical; conditions: read-out: % Inhibition BTK
T15 construct: purchased Reaction Biology Corp. (Kinase HotSpot service)
From the text: as §1

EGFR = molecular target: T16, EGFR (Homo sapiens, UniProt P00533); test: Kinase HotSpot kinase profiling; assay type: biochemical; conditions: read-out: % Inhibition EGFR
T16 construct: purchased Reaction Biology Corp. (Kinase HotSpot service)
From the text: as §1

ERK1 = molecular target: T17, ERK1 (Homo sapiens, UniProt P27361); test: Kinase HotSpot kinase profiling; assay type: biochemical; conditions: read-out: % Inhibition ERK1
T17 construct: purchased Reaction Biology Corp. (Kinase HotSpot service)
From the text: as §1

FGFR3 = molecular target: T18, FGFR3 (Homo sapiens, UniProt P22607); test: Kinase HotSpot kinase profiling; assay type: biochemical; conditions: read-out: % Inhibition FGFR3
T18 construct: purchased Reaction Biology Corp. (Kinase HotSpot service)
From the text: as §1

FLT3-ITD = FLT3-ITD (Homo sapiens, UniProt P36888, ITD); test: Kinase HotSpot kinase profiling; assay type: biochemical
From the text: as §1

FMS = molecular target: T19, FMS (Homo sapiens, UniProt P07333); test: Kinase HotSpot kinase profiling; assay type: biochemical; conditions: read-out: % Inhibition FMS
T19 construct: purchased Reaction Biology Corp. (Kinase HotSpot service)
From the text: as §1

FYN = molecular target: T20, FYN (Homo sapiens, UniProt P06241); test: Kinase HotSpot kinase profiling; assay type: biochemical
T20 construct: purchased Reaction Biology Corp. (Kinase HotSpot service)
From the text: as §1

c-MER = molecular target: T21, c-MER (Homo sapiens, UniProt Q12866); test: Kinase HotSpot kinase profiling; assay type: biochemical; conditions: read-out: % Inhibition c-MER
T21 construct: purchased Reaction Biology Corp. (Kinase HotSpot service)
From the text: as §1

c-MET = molecular target: T22, c-MET (Homo sapiens, UniProt P08581); test: Kinase HotSpot kinase profiling; assay type: biochemical; conditions: read-out: % Inhibition c-MET
T22 construct: purchased Reaction Biology Corp. (Kinase HotSpot service)
From the text: as §1

c-Src = molecular target: T23, c-Src (Homo sapiens, UniProt P12931); test: Kinase HotSpot kinase profiling; assay type: biochemical; conditions: read-out: % Inhibition c-Src
T23 construct: purchased Reaction Biology Corp. (Kinase HotSpot service)
From the text: as §1

FLT3 (D835Y) = molecular target: T24, FLT3 (D835Y) (Homo sapiens, UniProt P36888, D835Y); test: Reaction Biology Kinase HotSpot radiometric kinase assay; assay type: biochemical
T24 construct: purchased Reaction Biology Corp. (Kinase HotSpot service)
T24 sequence (P36888 27-993 D835Y): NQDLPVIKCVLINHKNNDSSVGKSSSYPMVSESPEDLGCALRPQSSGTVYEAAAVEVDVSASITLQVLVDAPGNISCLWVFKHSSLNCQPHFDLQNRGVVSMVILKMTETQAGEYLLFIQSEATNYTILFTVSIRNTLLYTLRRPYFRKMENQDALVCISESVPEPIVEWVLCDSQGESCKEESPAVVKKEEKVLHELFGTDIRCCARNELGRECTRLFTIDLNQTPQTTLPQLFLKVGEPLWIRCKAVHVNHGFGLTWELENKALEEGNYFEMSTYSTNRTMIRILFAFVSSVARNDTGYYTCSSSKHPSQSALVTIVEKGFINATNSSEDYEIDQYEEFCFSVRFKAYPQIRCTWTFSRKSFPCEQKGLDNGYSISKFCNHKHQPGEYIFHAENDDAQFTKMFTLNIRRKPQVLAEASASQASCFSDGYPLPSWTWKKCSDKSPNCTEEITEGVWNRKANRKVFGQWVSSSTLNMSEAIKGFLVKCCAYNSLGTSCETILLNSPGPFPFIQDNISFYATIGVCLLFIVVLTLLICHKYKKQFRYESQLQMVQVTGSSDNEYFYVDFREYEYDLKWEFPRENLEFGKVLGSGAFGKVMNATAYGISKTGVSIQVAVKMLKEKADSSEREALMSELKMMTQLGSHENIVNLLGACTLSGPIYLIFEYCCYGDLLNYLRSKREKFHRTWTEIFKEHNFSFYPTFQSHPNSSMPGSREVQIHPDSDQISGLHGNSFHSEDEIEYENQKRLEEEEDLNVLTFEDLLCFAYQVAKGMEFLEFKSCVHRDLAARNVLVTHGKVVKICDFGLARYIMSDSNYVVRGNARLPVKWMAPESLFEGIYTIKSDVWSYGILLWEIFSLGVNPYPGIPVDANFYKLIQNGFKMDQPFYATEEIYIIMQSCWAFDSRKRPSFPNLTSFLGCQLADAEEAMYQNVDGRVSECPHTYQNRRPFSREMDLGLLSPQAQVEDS
From the text: as §1

FLT3 wild type = molecular target: T25, FLT3 wild type (Homo sapiens, UniProt P36888); test: as above; assay type: biochemical; conditions: ATP 10 µM; read-out: FLT3 IC50
T25 construct: purchased Reaction Biology Corp. (Kinase HotSpot service)
T25 sequence (P36888 27-993): T24 sequence (P36888 27-993 D835Y) with Y809D
From the text: as §1

SMILES: CCN1CCN(Cc2cc(C(=O)Nc3ccc4[nH]c(-c5ccc6cn[nH]c6c5)nc4c3)cc(C(F)(F)F)c2)CC1 [8r, N-(2-(1H-Indazol-6-yl)-1H-benzo[d]imidazol-5-yl)-3-((4-ethylpiperazin-1-yl)methyl)-5-(trifluoromethyl)benzamide]
- IC50 (FLT3 (F594_R595 ins R)): 37.3 nM
- inhibition at 1 µM (FLT3 (F594_R595 ins R); read-out: % Inhibition FLT3 (F594_R595insR)): 92%
- IC50 (FLT3 (ITD)-NPOS): 41.5 nM
- inhibition at 1 µM (FLT3 (ITD)-NPOS): 88%
- IC50 (FLT3 (ITD)-W51): 22.8 nM
- inhibition at 1 µM (FLT3 (ITD)-W51; read-out: % Inhibition FLT3 (ITD)-W51): 93.9%
- IC50 (FLT3 (R595_E596 ins EY)): 24.8 nM
- inhibition at 1 µM (FLT3 (R595_E596 ins EY); read-out: % Inhibition FLT3 (R595_E596insEY)): 93.9%
- IC50 [1]: 49.5 nM
- inhibition at 1 µM ([1]; read-out: % Inhibition FLT3 (Y591_V592insVDFREYEYD)): 90.9%
- IC50 (ABL1): 3090 nM
- inhibition at 1 µM (ABL1; read-out: % Inhibition ABL1): 18.4%
- IC50 (CAMKK1): 395 nM
- inhibition at 1 µM (CAMKK1; read-out: % Inhibition CAMKK1): > 20%
- inhibition at 1 µM (CAMKK1; read-out: % Inhibition CAMKK1, 8r at 1 µM single dose): 32.5%
- IC50 (TRKC): 1520 nM
- inhibition at 1 µM (TRKC): > 20%
- IC50 (c-Kit): 4570 nM
- inhibition at 1 µM (c-Kit; read-out: % Inhibition c-Kit): 19%
- inhibition at 1 µM (AKT1): 3.09%
- inhibition at 1 µM (ALK): 7.5%
- inhibition at 1 µM (AXL): 1.88%
- inhibition at 1 µM (AXL (R499C)): 6.64%
- inhibition at 1 µM (Aurora A): 7.47%
- inhibition at 1 µM (BRAF (V599E)): 1%
- inhibition at 1 µM (BTK): 17.5%
- inhibition at 1 µM (EGFR): 0.274%
- inhibition at 1 µM (ERK1): 0%
- inhibition at 1 µM (FGFR3): 0%
- inhibition at 1 µM (FLT3-ITD): 88%
- inhibition at 1 µM (FMS): 0.531%
- inhibition at 1 µM (FYN): 18%
- inhibition at 1 µM (c-MER): 7.3%
- inhibition at 1 µM (c-MET): 6.53%
- inhibition at 1 µM (c-Src): 1.94%
- melting point: 265 to 267 °C

- IC50 (FLT3 (D835Y)): 8.86 nM and 9 nM
- fold more potent against FLT3-D835Y than against wild-type FLT3 (FLT3 (D835Y); ratio of IC50 values): 7- to 12 fold
- IC50 (FLT3 wild type): 107 nM
- melting point: 213 to 214 °C
SMILES: CN1CCCC(Nc2cc(C(=O)Nc3ccc4[nH]c(-c5ccc6cn[nH]c6c5)nc4c3)cc(C(F)(F)F)c2)C1 (stereo not shown) [8v, N-(2-(1H-Indazol-6-yl)-1H-benzo[d]imidazol-5-yl)-3-((1-methylpiperidin-3-yl)amino)-5-(trifluoromethyl)benzamide]

- IC50 (FLT3 (D835Y)): 13 nM
- IC50 (FLT3 wild type): 290 nM
- melting point: 164 to 166 °C
SMILES: CCN1CCN(Cc2ccc(C(=O)Nc3ccc4[nH]c(-c5ccc6cn[nH]c6c5)nc4c3)cc2C(F)(F)F)CC1 [8w, N-(2-(1H-Indazol-6-yl)-1H-benzo[d]imidazol-5-yl)-4-((4-ethylpiperazin-1-yl)methyl)-3-(trifluoromethyl)benzamide]
